Laboratory results from US11826344B2, “Composition, method of manufacture, and use of site-specific delivery of bruceolides for treatment of cancer and other diseases” (HOWARD UNIVERSITY, priority 2015, dated 2023).
pIC50: −log10 of the molar value.

Assays:
Type in all cases: cell-based, human
[1] = tested on: Prostate cancer lines PC3 and LNCaP; test: Preliminary cytotoxicity study of brusatol solution on prostate cancer cell lines (FIG. 1); conditions: brusatol 1 nM to 10,000 nM, read from FIG. 1, read-out: IC50 (kills prostate cancer cells)
Experimental: (§1) The human prostate cancer cell lines, PC3 and LNCaP, were obtained from American Type Culture Collection (Manassas, VA). The PC3 and LNCaP cell lines were maintained in RPMI 1640 supplemented with 10% (v/v) FBS and 100 U/mL of penicillin G and 100 µg/mL of streptomycin sulfate. The cells were maintained as a monolayer in an incubator at 37° C. in a humid atmosphere with 5% CO2.

PC3 cells = test: Cell Titer 96 Non-Radioactive Cell Proliferation Assay, PC3 cells, 120 h; conditions: PC3, 10-500 nM
Experimental: as §1
(§2) PC3 (seeding density of 3,000 cells per well) and LNCaP (seeding density of 6,000 cells per well) were seeded in 96-well plates and allowed to attach for 24 h. […] Cell viability was assessed at 120 h after treatment. The Cell Titer 96® Non-Radioactive Cell Proliferation Assay manufactured by Promega Corporation was employed for this study. Results are presented as percent viability normalized to controls and represent the mean±SD of six replicates per concentration tested. Results were analyzed using One-way Analysis of Variance (ANOVA) and Student's t-test with the aid of SPSS® statistical software. Differences were considered significant at p<0.05.
(§3) The toxicity of the brusatol-loaded nanoparticles in prostate cancer cell lines was evaluated over 120 hours using the Cell Titer 96® Non-Radioactive Cell Proliferation Assay (Promega Corp.). LNCaP cells are androgen receptor dependent while PC-3 cells are androgen independent. […]

LNCaP cells [2] = test: Cell Titer 96 Non-Radioactive Cell Proliferation Assay, LNCaP cells, 120 h; conditions: 10-500 nM
Experimental: as §1, §2, §3

LNCaP cells [3] = test: Cell cycle analysis by propidium iodide flow cytometry; conditions: 50 nM brusatol, 120 h (day 5)
Experimental: LNCaP cells (seeding density of 40,000 cells per well) were seeded in triplicates in a 24-well plate and incubated for 48 hours. […] The experiment was done in triplicate. At the 120 h time point, cells were harvested and washed twice with cold PBS, fixed in 70% ethanol for 1 h at 4° C. The cells were then washed twice with PBS, and treated with ribonuclease followed by staining with propidium iodide. The stained cells were subjected to cell cycle analysis using the BD Accuri™ C6 flow cytometer (BD Biosciences, Ann Arbor, MI, USA). For each replicate, 20,000 events were recorded.

## Brusatol
[1]
  pIC50: 7.00 to 9.00
PC3 cells
  toxicity (in words): dose-dependent toxicity
LNCaP cells [2]
  toxicity (in words): dose-dependent toxicity
LNCaP cells [3]
  cell cycle effect: induces a G1 arrest
LNCaP cells [3]; listed as brusatol solution
  cell cycle effect: G1 arrest
